Reference: PMC6153434, “Bystander Effects of Hypoxia-Activated Prodrugs: Agent-Based Modeling Using Three Dimensional Cell Cultures” (Frontiers in Pharmacology, 2018)

Tests used:
[1] = test system: POR-R cells; test: LC-MS/MS assay for PR104A metabolites in anoxic cultures; type: in vitro ADME; settings: 100 μM PR104A, 3 h, anoxia
Method: POR-R cells (10^6 cells/0.5 mL) in 24-well plates were exposed to 100 μM PR104A under anoxia for 3 h. Plates were centrifuged (216 × g, 4°C, 8 min) extracellular medium was removed and proteins precipitated with an equal volume of ice-cold methanol. Cold methanol (100 μL) was then added to each well to extract intracellular PR104A and metabolites. Samples were stored at -80°C, then thawed, centrifuged (13,000 × g, 5 min, 4°C), diluted with two volumes of ammonium formate buffer (4.5 mM, pH 4.5) and analyzed with an Agilent LC-MS/MS (model 6460) using an electrospray ionization/atmospheric pressure chemical ionization multimode source and photodiode array absorbance detector as described previously ([Patel et al., 2007]).

[2] = pH 7.4
[3] = test system: SiHa cells
[4] = Stability in culture medium at 37°C by LC-MS/MS
[5] = ref Hicks et al., 2010; Wang et al., 2014; Gu et al., 2017; cited from earlier work
[6] = test system: high-POR 'activator' HCT116 cell lines (POR-R, POR-G); type: cell-based
[7] = test system: POR-null 'target' HCT116 cells in spheroids; type: cell-based
[8] = test system: POR-R activators and PORko-G targets (HCT116); test: SN30000 'no bystander effect' agent-based model parameters; settings: ABM parameter
[9] = test system: anoxic MCLs of POR-R activators and PORko-G targets; settings: 100 μM in donor; differing proportions of POR-R activators
[10] = test system: HCT116 cells; settings: cited from earlier work
[11] = test system: HCT116 and HCT116/POR#6; settings: published value; PR104H+M model; ref Foehrenbacher et al., 2013; cited from earlier work
[12] = published value, ref Hicks et al., 2010
[13] = published value, ref Mao et al., 2018

SMILES	Measured logD7.4 [2]	also measured
Nc1cc(C(=O)NCCO)c(N(CCCl)CCCl)c([N+](=O)[O-])c1 [Metabolite B]		extracellular concentration relative to PR104H ([1]; P = 0.02): fivefold higher
NC(=O)c1cc(N(CCCl)CCBr)c([N+](=O)[O-])cc1[N+](=O)[O-] [I Cl Br H]	1.61	
CS(=O)(=O)OCCN(CCBr)c1c(C(=O)NCC(O)CO)cc([N+](=O)[O-])cc1[N+](=O)[O-] (stereo not shown) [IV Br OSO2CH3 CH2CHOHCH2OH]	0.589	
O=C(NCCO)c1cc(N(CCBr)CCBr)c([N+](=O)[O-])cc1[N+](=O)[O-] [I Br Br CH2CH2OH]	1.69	
NC(=O)c1cc(N(CCI)CCI)c([N+](=O)[O-])cc1[N+](=O)[O-] [I Iodo Iodo H]	2.408	
NC(=O)c1cc(N(CCCl)CCCl)c([N+](=O)[O-])cc1[N+](=O)[O-] [I Cl Cl H]	1.515	
O=C(NCCN1CCOCC1)c1cc(N(CCCl)CCCl)c([N+](=O)[O-])cc1[N+](=O)[O-] [I Cl Cl CH2CH2-Nmorp]	1.6	
CS(=O)(=O)OCCN(CCBr)c1ccc([N+](=O)[O-])c(C(=O)NCC(O)CO)c1[N+](=O)[O-] (stereo not shown) [VI Br OSO2CH3 CH2CHOHCH2OH]	-0.373	
NC(=O)c1c([N+](=O)[O-])ccc(N(CCCl)CCCl)c1[N+](=O)[O-] [VI Cl Cl H]	1.41	
O=C(NCC(O)CO)c1cc(N(CCI)CCI)c([N+](=O)[O-])cc1[N+](=O)[O-] (stereo not shown) [I Iodo Iodo CH2CHOHCH2OH]	1.79	
CS(=O)(=O)OCCN(CCI)c1cc(C(N)=O)c([N+](=O)[O-])cc1[N+](=O)[O-] [I Iodo OSO2CH3 H]	0.743	
O=C(NO)c1cc(N(CCCl)CCCl)c([N+](=O)[O-])cc1[N+](=O)[O-] [I Cl Cl OH]	1.22	
NC(=O)c1cc([N+](=O)[O-])cc([N+](=O)[O-])c1N(CCI)CCI [IV Iodo Iodo H]	3.08	
O=C(NCC(O)CO)c1c([N+](=O)[O-])ccc(N(CCBr)CCBr)c1[N+](=O)[O-] (stereo not shown) [VI Br Br CH2CHOHCH2OH]	1.04	
NC(=O)c1cc(N(CCOS(N)(=O)=O)CCOS(N)(=O)=O)c([N+](=O)[O-])cc1[N+](=O)[O-] [I OSO2NH2 OSO2NH2 H]	-0.95	
O=C(NCCO)c1cc(N(CCCl)CCCl)c([N+](=O)[O-])cc1[N+](=O)[O-] [I Cl Cl CH2CH2OH]	1.315	
NC(=O)c1cc(NO)cc([N+](=O)[O-])c1N(CCO)CCO [V OH OH H]	-1.36	
O=C(NCC(O)CO)c1cc([N+](=O)[O-])cc([N+](=O)[O-])c1N(CCBr)CCBr (stereo not shown) [IV Br Br CH2CHOHCH2OH]	1.83	
O=C(NCCO)c1cc(NO)cc([N+](=O)[O-])c1N(CCCl)CCCl [Metabolite A, 2-(Bis(2-chloroethyl)amino)-5-(hydroxyamino)-N-(2-hydroxyethyl)-3-nitrobenzamide]		cytotoxic potency relative to PR104H [3]: lower cytotoxic potency; half-life in culture medium relative to PR104H [4]: fourfold longer half-life
NC(=O)c1cc(N(CCBr)CCBr)c([N+](=O)[O-])cc1[N+](=O)[O-] [I Br Br H]	1.97	
O=C(NCCO)c1cc([N+](=O)[O-])cc([N+](=O)[O-])c1N(CCBr)CCBr [IV Br Br CH2CH2OH]	2.33	
O=C(NCCCO)c1cc(N(CCBr)CCBr)c([N+](=O)[O-])cc1[N+](=O)[O-] [I Br Br (CH2)3OH]	1.81	

SMILES	Measured logD7.4 [2]	also measured
O=C(NCC(O)CO)c1cc(N(CCCl)CCCl)c([N+](=O)[O-])cc1[N+](=O)[O-] (stereo not shown) [I Cl Cl CH2CHOHCH2OH]	0.93	
CS(=O)(=O)OCCN(CCBr)c1cc(C(=O)NCCO)c([N+](=O)[O-])cc1[N+](=O)[O-] [I Br OSO2CH3 CH2CH2OH]	0.461	
O=C(NCCCO)c1cc(N(CCCl)CCCl)c([N+](=O)[O-])cc1[N+](=O)[O-] [I Cl Cl (CH2)3OH]	1.49	
O=C(NCCO)c1cc([N+](=O)[O-])cc([N+](=O)[O-])c1N(CCCl)CCCl [IV Cl Cl CH2CH2OH]	1.92	
[O-][n+]1nc(CCCN2CCOCC2)nc2cc3c(cc21)CCC3 [1-oxide]		cytotoxicity of downstream metabolites of SN30000 [5]: non-cytotoxic
CS(=O)(=O)OCCN(CCCl)c1cc(C(N)=O)c([N+](=O)[O-])cc1[N+](=O)[O-] [I Cl OSO2CH3 H]	0.425	
c1c2c(cc3nc(CCCN4CCOCC4)nnc13)CCC2 [nor-oxide]		cytotoxicity of downstream metabolites of SN30000 [5]: non-cytotoxic
CS(=O)(=O)c1cc([N+](=O)[O-])c(C(N)=O)cc1N(CCBr)CCBr [II Br Br H]	1.18	
NC(=O)c1cc(N(CCO)CCO)c([N+](=O)[O-])cc1N [III OH OH H]	-0.445	
[O-][n+]1nc(CCCN2CCOCC2)[n+]([O-])c2cc3c(cc21)CCC3 [SN30000]		sensitivity of activator cell lines (clonogenic survival) [6]: marked increases in the sensitivity; bystander effect [7]: trivially small; killing of target cells as proportion of activators increases [7]: increasing proportions of POR-R activators reduced killing of PORko-G targets; Half-life, non-enzymatic loss in culture medium ([8]; 37 °C): 1000 days; F2, proportion of O2-dependent metabolism of the drug [8]: 1; Hill parameter n [8]: 1.7; KO2, O2 concentration for half-maximum prodrug activation [8]: 1.14; Kc, intrinsic cytotoxic potency of the prodrug [8]: 1800 M⁻¹ s⁻¹; Kin, rate constant for transfer from the extracellular to the intracellular compartment [8]: 10 min⁻¹; Kout, rate constant for transfer from the intracellular to the extracellular compartment [8]: 10 min⁻¹; Activator Kmet,0, rate constant for the maximum rate of metabolism in activator cells under anoxia ([8]; POR-R activators, adjusted to optimize monolayer fits): 14 min⁻¹; Target Kmet,0, rate constant for the maximum rate of metabolism in target cells under anoxia ([8]; PORko-G targets, adjusted to optimize monolayer fits): 1.3 min⁻¹; net diffusion through anoxic MCLs [9]: lowered by increasing proportions of activator cells; Half-life, non-enzymatic loss in culture medium ([10]; 37 °C, published value, ref Mao et al., 2018): 1000 days; Hill parameter n ([10]; oxygen dependence of metabolism, published value, ref Mao et al., 2018): 1.7; Kmet,0, rate constant for the maximum rate of metabolism under anoxia ([10]; parental HCT116 cells (listed as Target Kmet,0 published value), ref Mao et al., 2018): 1.88 min⁻¹; F2, proportion of O2-dependent metabolism of the drug [10, 12]: 1; KO2, O2 concentration for half-maximum prodrug activation [10, 12]: 1.14; Kin, rate constant for transfer from the extracellular to the intracellular compartment [10, 13]: 10 min⁻¹; Kout, rate constant for transfer from the intracellular to the extracellular compartment [10, 13]: 10 min⁻¹
NC(=O)c1cc(NO)cc([N+](=O)[O-])c1N(CCCl)CCCl [V Cl Cl H]	2.19	
CS(=O)(=O)OCCN(CCBr)c1c(C(N)=O)cc([N+](=O)[O-])cc1[N+](=O)[O-] [IV Br OSO2CH3 H]	1.23	
CS(=O)(=O)OCCN(CCBr)c1cc(C(N)=O)c([N+](=O)[O-])cc1[N+](=O)[O-] [I Br OSO2CH3 H]	0.493	
O=C(NCCCO)c1cc([N+](=O)[O-])cc([N+](=O)[O-])c1N(CCCl)CCCl [IV Cl Cl (CH2)3OH]	2	
CS(=O)(=O)OCCN(CCBr)c1cc(C(=O)NCC(O)CO)c([N+](=O)[O-])cc1[N+](=O)[O-] (stereo not shown) [I Br OSO2CH3 CH2CHOHCH2OH]	-0.0453	
CS(=O)(=O)OCCN(CCBr)c1c(C(=O)NCCO)cc([N+](=O)[O-])cc1[N+](=O)[O-] [IV Br OSO2CH3 CH2CH2OH]	1.01	
CS(=O)(=O)OCCN(CCOS(C)(=O)=O)c1cc(C(N)=O)c([N+](=O)[O-])cc1[N+](=O)[O-] [I OSO2CH3 OSO2CH3 H]	-0.701	
NC(=O)c1cc([N+](=O)[O-])cc([N+](=O)[O-])c1N(CCBr)CCBr [IV Br Br H]	2.63	
CS(=O)(=O)OCCN(CCCl)c1c(C(N)=O)cc([N+](=O)[O-])cc1[N+](=O)[O-] [IV Cl OSO2CH3 H]	1.02	
CS(=O)(=O)OCCN(CCBr)c1c(C(=O)NCCO)cc(NO)cc1[N+](=O)[O-] [PR104H]		intracellular metabolite profile [1]: major intracellular metabolite; Kc, intrinsic cytotoxic potency [11]: 92 M⁻¹ s⁻¹
O=C(NCC(O)CO)c1cc(N(CCBr)CCBr)c([N+](=O)[O-])cc1[N+](=O)[O-] (stereo not shown) [I Br Br CH2CHOHCH2OH]	1.25	
